In assay [1] the test system is purple nutsedge. The assay can be described thus: Test B pre/postemergence purple nutsedge. Type of assay: in vivo, Cyperus rotundus. The procedure, abridged: (§1)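 Test chemicals in a non-phytotoxic solvent mixture with surfactant were sprayed preemergence onto planted seeds and postemergence onto plants 2 to 18 cm tall (1- to 4-leaf stage). After twelve to sixteen days in a greenhouse, injury was visually rated against untreated controls from 0 (no effect) to 10 (complete control).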

For assay [2], the system named is blackgrass. The experiment in a line: Test B pre/postemergence blackgrass. Type of assay: in vivo, Alopecurus myosuroides. The procedure, abridged:
as §1

Assay [3] deals with crabgrass. The assay can be described thus: Test B pre/postemergence crabgrass. Type of assay: in vivo, Digitaria sanguinalis. The procedure, abridged:
as §1

Setting [4] is: Postemergence, Rate 250 g/ha, scale 0 to 10, 0 is no effect, 10 is complete control.
[5] abbreviates: Postemergence, Rate 500 g/ha, scale of 0 to 10 where 0 is no effect and 10 is complete control.
Where [6] appears, read: Preemergence, Rate 62 g/ha, scale 0 to 10 (0 no effect, 10 complete control).
[7] abbreviates: Preemergence, Rate 125 g/ha, scale of 0 to 10 where 0 is no effect and 10 is complete control.
Setting [8] is: Preemergence, Rate 250 g/ha, scale 0 to 10, 0 is no effect, 10 is complete control.
Setting [9] is: Preemergence, Rate 500 g/ha, scale 0 to 10, 0 is no effect, 10 is complete control.
The mark [10] stands for this setting: Rate 62 g/ha, Postemergence, scale of 0 to 10 where 0 is no effect and 10 is complete control.
Where [11] appears, read: Postemergence, Rate 125 g/ha, scale 0 to 10, 0 is no effect, 10 is complete control.
Setting [12] is: Preemergence, Rate 250 g/ha, scale of 0 to 10 where 0 is no effect and 10 is complete control.
Where [13] appears, read: Postemergence, Rate 250 g/ha, scale 0 to 10.
The mark [14] stands for this setting: Rate 125 g/ha, Postemergence, scale 0 to 10, 0 is no effect, 10 is complete control.
The mark [15] stands for this setting: Preemergence, Rate 62 g/ha, scale of 0 to 10 where 0 is no effect and 10 is complete control.
Setting [16] is: Rate 62 g/ha, Postemergence, scale 0 to 10 (0 no effect, 10 complete control).

Molecules are shown by their SMILES.

In the case of `CCOC(=O)C=C(Cn1c(=O)on(C(=O)N(c2ccc(F)cc2)C(C)C)c1=O)OCC` [Compound 396], the “Plant response rating, Nutsedge” value in assay [1] (setting [4]), in assay [1] (setting [6]) and in assay [1] (setting [7]) was 0 each time. Besides, the “Nutsedge plant response rating” value in assay [1] (setting [5]), in assay [1] (setting [8]), in assay [1] (setting [9]) and in assay [1] (setting [10]) was 0 each time. Besides, the “Plant response rating, Blackgrass” value is 2 in assay [2] (setting [11]), 3 in assay [2] (setting [4]), 0 in assay [2] (setting [6]) and 0 in assay [2] (setting [7]). Also, the “Blackgrass plant response rating” value in assay [2] (setting [5]) is given as 6; in assay [2] (setting [12]) it was 3; in assay [2] (setting [9]) it was 5; in assay [2] (setting [10]), 0. Besides, the “Plant response rating, Crabgrass” value in assay [3] (setting [11]) turned out to be 0; in assay [3] (setting [4]), 2; in assay [3] (setting [6]), 0; in assay [3] (setting [7]), 7. The “Crabgrass plant response rating” value in assay [3] (setting [5]) is 2; in assay [3] (setting [8]), 10; in assay [3] (setting [9]), 10; in assay [3] (setting [10]), 0.

Consider `CC(=O)C(C)n1c(=O)on(C(=O)N(c2ccc(F)cc2)C(C)C)c1=O` (stereo not shown) [Compound 400], for which the “Plant response rating, Nutsedge” value in assay [1] (setting [4]), in assay [1] (setting [6]) and in assay [1] (setting [7]) was 0 throughout. Moreover, the “Nutsedge plant response rating” value in assay [1] (setting [5]), in assay [1] (setting [8]), in assay [1] (setting [9]) and in assay [1] (setting [10]) was 0 in each case. Moreover, the “Plant response rating, Blackgrass” value is 4 in assay [2] (setting [11]), 8 in assay [2] (setting [4]), 0 in assay [2] (setting [6]) and 0 in assay [2] (setting [7]). Besides, the “Blackgrass plant response rating” value in assay [2] (setting [5]) stood at 8; in assay [2] (setting [12]) it was 0; in assay [2] (setting [9]), 0; in assay [2] (setting [10]), 0. The “Plant response rating, Crabgrass” value in assay [3] (setting [4]) is on record as 6; in assay [3] (setting [6]), 6; in assay [3] (setting [7]) it was 9. The “Crabgrass plant response rating” value in assay [3] (setting [5]) was 9; in assay [3] (setting [8]) it was 10; in assay [3] (setting [9]), 10; in assay [3] (setting [10]) it was 0.

Take `CC(C)N(C(=O)n1oc(=O)n(C(C)C#N)c1=O)c1ccc(F)cc1F` (stereo not shown) [Compound 432]: the “Nutsedge plant response rating” value in assay [1] (setting [13]), in assay [1] (setting [5]), in assay [1] (setting [8]), in assay [1] (setting [9]) and in assay [1] (setting [14]) was 0 throughout. In addition, the “Plant response rating, Nutsedge” value in assay [1] (setting [6]) and in assay [1] (setting [7]) was 0 throughout. The “Blackgrass plant response rating” value in assay [2] (setting [13]) was found to be 4; in assay [2] (setting [5]), 4; in assay [2] (setting [8]) it was 0; in assay [2] (setting [9]), 2; in assay [2] (setting [10]), 0; in assay [2] (setting [14]), 2. The “Plant response rating, Blackgrass” value in assay [2] (setting [6]) and in assay [2] (setting [7]) was 0 each time. The “Crabgrass plant response rating” value worked out at 6 in assay [3] (setting [13]); 6 in assay [3] (setting [5]); 8 in assay [3] (setting [8]); 9 in assay [3] (setting [9]); 0 in assay [3] (setting [10]); 0 in assay [3] (setting [14]). Further, the “Plant response rating, Crabgrass” value in assay [3] (setting [6]) is 3; in assay [3] (setting [7]), 5.

Consider `COC(C)n1c(=O)on(C(=O)N(c2ccccc2)C(C)C)c1=O` (stereo not shown) [Compound 441], for which the “Nutsedge plant response rating” value in assay [1] (setting [13]), in assay [1] (setting [5]), in assay [1] (setting [8]), in assay [1] (setting [9]), in assay [1] (setting [16]) and in assay [1] (setting [14]) was 0 in each case. Moreover, the “Plant response rating, Nutsedge” value in assay [1] (setting [15]) and in assay [1] (setting [7]) was 0 in each case. Also, the “Blackgrass plant response rating” value in assay [2] (setting [13]), in assay [2] (setting [5]), in assay [2] (setting [8]), in assay [2] (setting [9]), in assay [2] (setting [16]) and in assay [2] (setting [14]) was 0 in each case. Also, the “Plant response rating, Blackgrass” value in assay [2] (setting [15]) and in assay [2] (setting [7]) was 0 throughout. Moreover, the “Crabgrass plant response rating” value in assay [3] (setting [13]), in assay [3] (setting [5]), in assay [3] (setting [8]), in assay [3] (setting [9]), in assay [3] (setting [16]) and in assay [3] (setting [14]) was 0 throughout. Further, the “Plant response rating, Crabgrass” value in assay [3] (setting [15]) and in assay [3] (setting [7]) was 0 throughout.

Consider `CC(C)N(C(=O)n1oc(=O)n(CCS(C)(=O)=O)c1=O)c1ccc(F)cc1` [Compound 453], for which the “Nutsedge plant response rating” value in assay [1] (setting [13]), in assay [1] (setting [8]), in assay [1] (setting [16]) and in assay [1] (setting [14]) was 0 in each case. In addition, the “Plant response rating, Nutsedge” value in assay [1] (setting [15]) and in assay [1] (setting [7]) was 0 throughout. Further, the “Blackgrass plant response rating” value was 6 in assay [2] (setting [13]); 6 in assay [2] (setting [5]); 3 in assay [2] (setting [8]); 5 in assay [2] (setting [9]); 0 in assay [2] (setting [16]); 0 in assay [2] (setting [14]). Further, the “Plant response rating, Blackgrass” value in assay [2] (setting [15]) and in assay [2] (setting [7]) was 0 each time. The “Crabgrass plant response rating” value in assay [3] (setting [13]) is recorded as 4; in assay [3] (setting [5]), 10; in assay [3] (setting [8]), 6; in assay [3] (setting [9]), 7; in assay [3] (setting [16]), 0. Moreover, the “Plant response rating, Crabgrass” value in assay [3] (setting [15]) is listed as 5; in assay [3] (setting [7]) it was 6.

Take `C=CC(CC)n1c(=O)on(C(=O)N(c2ccccc2)C(C)C)c1=O` (stereo not shown) [Compound 455]: the “Nutsedge plant response rating” value in assay [1] (setting [13]) is given as 0; in assay [1] (setting [8]) it was 0; in assay [1] (setting [9]) it was 3; in assay [1] (setting [16]) it was 0; in assay [1] (setting [14]) it was 0. In addition, the “Plant response rating, Nutsedge” value in assay [1] (setting [15]) and in assay [1] (setting [7]) was 0 each time. In addition, the “Blackgrass plant response rating” value in assay [2] (setting [13]) is 9; in assay [2] (setting [5]), 9; in assay [2] (setting [8]), 6; in assay [2] (setting [9]) it was 7; in assay [2] (setting [16]), 6; in assay [2] (setting [14]) it was 8. The “Plant response rating, Blackgrass” value in assay [2] (setting [15]) is 3; in assay [2] (setting [7]) it was 4. In addition, the “Crabgrass plant response rating” value in assay [3] (setting [13]) amounted to 4; in assay [3] (setting [5]), 9; in assay [3] (setting [8]), 10; in assay [3] (setting [9]), 10; in assay [3] (setting [16]), 4. Also, the “Plant response rating, Crabgrass” value in assay [3] (setting [15]) and in assay [3] (setting [7]) was 5 throughout.

For the compound `CC(C)N(C(=O)n1oc(=O)n(C(CF)CF)c1=O)c1ccc(Cl)cc1` [Compound 468], the “Nutsedge plant response rating” value in assay [1] (setting [13]), in assay [1] (setting [8]), in assay [1] (setting [9]), in assay [1] (setting [16]) and in assay [1] (setting [14]) was 0 each time. Also, the “Plant response rating, Nutsedge” value in assay [1] (setting [15]) and in assay [1] (setting [7]) was 0 throughout. The “Blackgrass plant response rating” value in assay [2] (setting [13]) stood at 7; in assay [2] (setting [5]) it was 8; in assay [2] (setting [8]), 5; in assay [2] (setting [9]) it was 9; in assay [2] (setting [16]) it was 0; in assay [2] (setting [14]), 5. The results for the “Plant response rating, Blackgrass” value in assay [2] (setting [15]) and in assay [2] (setting [7]) were 3 and 4, respectively. In addition, the “Crabgrass plant response rating” value was found to be 9 in assay [3] (setting [13]); 9 in assay [3] (setting [5]); 9 in assay [3] (setting [8]); 9 in assay [3] (setting [9]); 3 in assay [3] (setting [16]). Besides, the “Plant response rating, Crabgrass” value in assay [3] (setting [15]) and in assay [3] (setting [7]) was 9 in each case.

The values above are taken from patent publication US6737383B1, “Herbicidal oxadiazolidines” (priority 1999, dated 2004).
